Experiments:
Details in all cases: 72 h
Calu-3 [1] = assay: drug sensitivity score (DSS) for viability; higher = more toxic; extreme values may be limits of the assay
Caco-2 [2] = assay: as above
Vero E6 [3] = assay: as above
U2OS [4] = assay: as above
HepG2 [5] = assay: as above
Calu-3 [6] = assay: cell viability relative to DMSO; higher = less toxic
Caco-2 [7] = assay: as above
Vero E6 [8] = assay: as above
U2OS [9] = assay: as above
HepG2 [10] = assay: as above
Calu-3 [11] = assay: relative viability EC50 (midpoint between 100% and the lowest measured viability); higher = less toxic
Caco-2 [12] = assay: as above
Vero E6 [13] = assay: as above
U2OS [14] = assay: as above
HepG2 [15] = assay: as above

| Structure (SMILES) | drug sensitivity score (Calu-3 [1]) | drug sensitivity score (Caco-2 [2]) | drug sensitivity score (Vero E6 [3]) | drug sensitivity score (U2OS [4]) | drug sensitivity score (HepG2 [5]) | cell viability (Calu-3 [6]; 1 nM) | cell viability (Calu-3 [6]; 10 nM) | cell viability (Calu-3 [6]; 100 nM) | cell viability (Calu-3 [6]; 1000 nM) | cell viability (Calu-3 [6]; 10000 nM) | cell viability (Caco-2 [7]; 1 nM) | cell viability (Caco-2 [7]; 10 nM) | cell viability (Caco-2 [7]; 100 nM) | cell viability (Caco-2 [7]; 1000 nM) | cell viability (Caco-2 [7]; 10000 nM) | cell viability (Vero E6 [8]; 1 nM) | cell viability (Vero E6 [8]; 10 nM) | cell viability (Vero E6 [8]; 100 nM) | cell viability (Vero E6 [8]; 1000 nM) | cell viability (Vero E6 [8]; 10000 nM) | cell viability (U2OS [9]; 1 nM) | cell viability (U2OS [9]; 10 nM) | cell viability (U2OS [9]; 100 nM) | cell viability (U2OS [9]; 1000 nM) | cell viability (U2OS [9]; 10000 nM) | cell viability (HepG2 [10]; 1 nM) | cell viability (HepG2 [10]; 10 nM) | cell viability (HepG2 [10]; 100 nM) | cell viability (HepG2 [10]; 1000 nM) | cell viability (HepG2 [10]; 10000 nM) | relative viability EC50 (Calu-3 [11]) | relative viability EC50 (Caco-2 [12]) | relative viability EC50 (Vero E6 [13]) | relative viability EC50 (U2OS [14]) | relative viability EC50 (HepG2 [15]) |
| --- | --- | --- | --- | --- | --- | --- | --- | --- | --- | --- | --- | --- | --- | --- | --- | --- | --- | --- | --- | --- | --- | --- | --- | --- | --- | --- | --- | --- | --- | --- | --- | --- | --- | --- | --- |
| C[N+](C)(CCOc1ccccc1)Cc1ccccc1 [bephenium-hydroxynaphthoate] | 0 | 0 | 0 | 0 | 0 | 102% | 103% | 90% | 98% | 102% | 96.1% | 99.4% | 106% | 102% | 102% | 98.2% | 96.9% | 94.8% | 92.6% | 103% | 93.7% | 99.4% | 93.5% | 101% | 102% | 100% | 98.4% | 92.3% | 96.8% | 100% | > 10 µM | > 10 µM | > 10 µM | > 10 µM | > 10 µM |
| Oc1cccc(Nc2ccc(Nc3cccc(O)c3)nn2)c1 [beta-amyloid-synthesis-inhibitor] | 0 | 0 | 0 | 0 | 0 | 115% | 94.9% | 98.1% | 106% | 102% | 101% | 90.4% | 109% | 101% | 94.4% | 92.4% | 97.3% | 93.8% | 98% | 95.5% | 106% | 97.1% | 100% | 100% | 106% | 102% | 101% | 97.9% | 98.6% | 104% | > 10 µM | > 10 µM | > 10 µM | > 10 µM | > 10 µM |
| CC1=C(/C=C/C(C)=C/C=C/C(C)=C/C=C/C=C(C)/C=C/C=C(C)/C=C/C2=C(C)CCCC2(C)C)C(C)(C)CCC1 [beta-carotene] | 0 | 0 | 0 | 0 | 0 | 98.9% | 104% | 104% | 97.4% | 105% | 89.3% | 99.3% | 104% | 92.7% | 98.5% | 93.8% | 102% | 96.3% | 104% | 108% | 92.6% | 95.1% | 102% | 93.9% | 101% | 96.1% | 103% | 94.6% | 110% | 106% | > 10 µM | > 10 µM | > 10 µM | > 10 µM | > 10 µM |
| Cc1occc(=O)c1[O-].Cc1occc(=O)c1[O-].[O]=[V+2] [bis(maltolato)oxovanadium(IV)] | 0.3 | 0 | 0 | 0 | 0 | 100% | 103% | 98% | 92.4% | 86.3% | 101% | 96% | 95.4% | 95.4% | 90.4% | 94% | 98.2% | 92.7% | 105% | 103% | 98.4% | 91.3% | 102% | 94.5% | 88.5% | 110% | 104% | 100% | 108% | 93% | > 10 µM | > 10 µM | > 10 µM | > 10 µM | > 10 µM |
| S=C=Nc1ccc(N=C=S)cc1 [bitoscanate] | 0 | 0 | 0 | 0 | 0 | 104% | 103% | 94.6% | 95.3% | 102% | 91.8% | 96.6% | 101% | 106% | 103% | 90.7% | 93.6% | 93.5% | 92.2% | 104% | 94.2% | 101% | 96.3% | 100% | 105% | 97.9% | 82.6% | 103% | 91% | 105% | > 10 µM | > 10 µM | > 10 µM | > 10 µM | > 10 µM |
| CC(C)(C)[C@]1(O)CCN2C[C@H]3c4ccccc4CCc4cccc(c43)[C@@H]2C1 [butaclamol] | 0 | 0 | 0 | 0 | 0 | 90% | 99.7% | 97.2% | 112% | 94.9% | 101% | 94.3% | 93.9% | 99.6% | 94.5% | 98.4% | 103% | 104% | 98% | 102% | 95.5% | 101% | 92% | 101% | 90.2% | 108% | 100% | 96.3% | 90% | 95.5% | > 10 µM | > 10 µM | > 10 µM | > 10 µM | > 10 µM |
| CN1CC(O)C2=C/C(=N/NC(N)=O)C(=O)C=C21 (stereo not given) [carbazochrome] | 0 | 0 | 0 | 0 | 0 | 105% | 95.3% | 103% | 93.9% | 93.4% | 93.3% | 88.5% | 91.5% | 102% | 109% | 101% | 97% | 93.9% | 96.8% | 103% | 101% | 97.6% | 98.2% | 92.7% | 101% | 98.8% | 97% | 92.2% | 97.1% | 93.1% | > 10 µM | > 10 µM | > 10 µM | > 10 µM | > 10 µM |
| CC(=O)OCC1=C(C(=O)O)N2C(=O)[C@@H](NC(=O)CCCC(N)C(=O)O)C2SC1 (stereo not given in full) [cephalosporin-c-zn] | 0 | 0 | 0 | 0 | 0 | 93.2% | 104% | 91.5% | 97.7% | 99.5% | 88.7% | 78% | 94.1% | 89.6% | 99.2% | 93.6% | 87.4% | 90.9% | 100% | 104% | 97.1% | 98.1% | 94.9% | 92.7% | 104% | 103% | 88.2% | 81.8% | 112% | 102% | > 10 µM | > 10 µM | > 10 µM | > 10 µM | > 10 µM |
| C=CC1=C(C)C2=CC3=NC(=C(CC(=O)O)C4=NC(=C(C)C4=C(O)O)C=c4[nH]c(c(C)c4CC)=CC1=N2)C(CCC(=O)O)C3C (stereo not given) [chlorophyllin] | 0 | 0 | 0 | 0 | 0 | 111% | 89.7% | 93.2% | 101% | 116% | 102% | 104% | 96.6% | 91% | 91.4% | 100% | 99.9% | 95.7% | 96.9% | 92.6% | 97.7% | 96.1% | 100% | 96% | 103% | 97.3% | 106% | 115% | 112% | 106% | > 10 µM | > 10 µM | > 10 µM | > 10 µM | > 10 µM |
| C[C@H](CCC(=O)O)[C@H]1CC[C@H]2[C@@H]3[C@H](O)C[C@@H]4C[C@H](O)CC[C@]4(C)[C@H]3C[C@H](O)[C@]12C [cholic-acid] | 0 | 0 | 0 | 0 | 0 | 87% | 91.1% | 88% | 99% | 96.9% | 93.3% | 92.3% | 95.3% | 100% | 93% | 102% | 102% | 100% | 100% | 99.4% | 97.3% | 100% | 93.5% | 102% | 96.5% | 112% | 97.5% | 96.3% | 94.2% | 102% | > 10 µM | > 10 µM | > 10 µM | > 10 µM | > 10 µM |
| O=c1cc(-c2ccccc2)oc2cc(O)cc(O)c12 [chrysin] | 0 | 0 | 0 | 0 | 0 | 94.5% | 92.9% | 106% | 91.7% | 102% | 99.4% | 86.9% | 102% | 91.9% | 94.4% | 92.5% | 102% | 87.9% | 94.8% | 111% | 98.4% | 97% | 101% | 97.4% | 99.2% | 88.5% | 102% | 93.5% | 100% | 104% | > 10 µM | > 10 µM | > 10 µM | > 10 µM | > 10 µM |

Source: the supplement of paper PMC13380429
